Source: patent US9173396B2, “Heterocyclic compounds as pesticides” (BAYER INTELLECTUAL PROPERTY GMBH, priority 2010, dated 2015)
Like-named read-outs stand apart in the source and are kept apart here.

Assays:
[1] = tested on: green peach aphid (Myzus persicae); test: Myzus test (spray treatment); format: in vivo; conditions: foliar, 144 h, application rate of 500 g/ha, after 6 days, Chinese cabbage leaf discs, 100% = all aphids killed, read-out: effect in %
Experimental: Myzus Test (Spray Treatment)
• Solvents: 78 parts by weight of acetone • 1.5 parts by weight of dimethylformamide • Emulsifier: 0.5 part by weight of alkylaryl polyglycol ether
(§1) To produce a suitable preparation of active compound, 1 part by weight of active compound is mixed with the stated amounts of solvent and emulsifier, and the concentrate is diluted with emulsifier-containing water to the desired concentration. Discs of Chinese cabbage (Brassica pekinensis) infected by all stages of the green peach aphid (Myzus persicae) are sprayed with an active compound preparation of the desired concentration.
After 6 days, the effect in % is determined. 100% means that all of the aphids have been killed; 0% means that none of the aphids have been killed.

[2] = tested on: greenhouse red spider mite (Tetranychus urticae); test: Tetranychus test (OP-resistant/spray treatment); format: in vivo; conditions: application rate of 500 g/ha; after 6 days; bean leaf discs; 100% = all spider mites killed
Experimental: Tetranychus Test (OP-Resistant/Spray Treatment)
• Solvents: 78.0 parts by weight of acetone • 1.5 parts by weight of dimethylformamide • Emulsifier: 0.5 part by weight of alkylaryl polyglycol ether
as §1, with “bean leaves (Phaseolus vulgaris) which are infested” for “Chinese cabbage (Brassica pekinensis) infected”, “greenhouse red spider mite (Tetranychus urticae)” for “green peach aphid (Myzus persicae)”
After 6 days, the effect in % is determined. 100% means that all of the spider mites have been killed; 0% means that none of the spider mites have been killed.

[3] = log P, HPLC-MS, eluent not stated
[4] = HCOOH (formic acid), logP, HCOOH, Table 1
[5] = HCOOH (formic acid), log P (HCOOH), HPLC-MS, HCOOH

Row | chromatographic logP (log P by HPLC-MS; [3]) | chromatographic logP (log P by HPLC-MS; [4]) | SMILES | pest or weed control at 500 g/ha [1] | other results
1 | 1.81 |  | O=C(O)c1cccc(-n2ccc(-c3cncc(F)c3)n2)n1 [6-[3-(5-Fluoro-3-pyridinyl)-1H-pyrazol-1-yl]-2-pyridinecarboxylate] |  | 
2 |  | 1.17 | Cc1nn(-c2cccnc2)c(=O)n1-c1cccc(-c2ncccn2)n1 [Compound 16, 5-methyl-2-(pyridin-3-yl)-4-[6-(pyrimidin-2-yl)pyridin-2-yl]-2,4-dihydro-3H-1,2,4-triazol-3-one] |  | 
3 | 2.11 | 2.11 | FC(F)(F)c1cccc(-n2cnc(-c3cccnc3)n2)n1 [Compound 6, 2-[3-(Pyridin-3-yl)-1H-1,2,4-triazol-1-yl]-6-(trifluoromethyl)pyridine] | 100% | 
4 |  | 0.73 | c1cnc(-c2cccc(-n3cnc(-c4cccnc4)c3)n2)nc1 [Compound 3, 2-{6-[4-(Pyridin-3-yl)-1H-imidazol-1-yl]pyridin-2-yl}pyrimidine] | 100% | chromatographic logP (log P by HPLC-MS; [5]): 0.75
5 | 1.2 | 1.2 | c1cnc(-c2cccc(-n3ccc(-c4cccnc4)n3)n2)nc1 [Compound 13, 2-{6-[3-(Pyridin-3-yl)-1H-pyrazol-1-yl]pyridin-2-yl}pyrimidine] |  | 
6 | 1.39 | 1.39 | c1cnc(-c2cccc(-c3cnc(-c4cccnc4)o3)n2)nc1 [Compound 7, 2-{6-[2-(Pyridin-3-yl)-1,3-oxazol-5-yl]pyridin-2-yl}pyrimidine] | 100% | effect in % [2]: 100%
7 | 1.26 | 1.26 | c1cnc(-c2cccc(-c3coc(-c4cccnc4)c3)n2)nc1 [Compound 11, 2-{6-[5-(Pyridin-3-yl)-3-furyl]pyridin-2-yl}pyrimidine] |  | 
8 |  | 1.48 | CCc1nn(-c2cccnc2)c(=O)n1-c1cccc(-c2ncccn2)n1 [Compound 15, 5-Ethyl-2-(pyridin-3-yl)-4-[6-(pyrimidin-2-yl)pyridin-2-yl]-2,4-dihydro-3H-1,2,4-triazol-3-one] |  | 
9 | 1.79 | 1.79 | c1cnc(-c2cccc(-c3ncc(-c4cccnc4)s3)n2)nc1 [Compound 17, 2-{6-[5-(Pyridin-3-yl)-1,3-thiazol-2-yl]pyridin-2-yl}pyrimidine] | 100% | 
10 | 1.39 | 1.39 | c1cnc(-c2cccc(-c3cn(-c4cccnc4)nn3)n2)nc1 [Compound 10, 2-{6-[1-(Pyridin-3-yl)-1H-1,2,3-triazol-4-yl]pyridin-2-yl}pyrimidine] | 100% | 
11 |  | 1.26 | Cn1nc(-c2cccc(-c3ncccn3)n2)cc1-c1cccnc1 [Compound 2, 2-{6-[1-Methyl-5-(pyridin-3-yl)-1H-pyrazol-3-yl]pyridin-2-yl}pyrimidine] | 100% | chromatographic logP (log P by HPLC-MS; [5]): 1.26
12 | 1.04 | 1.04 | c1cnc(-c2cccc(-n3cc(-c4cccnc4)cn3)n2)nc1 [Compound 9, 2-{6-[4-(Pyridin-3-yl)-1H-pyrazol-1-yl]pyridin-2-yl}pyrimidine] | 100% | 
13 |  | 2.23 | Brc1cccc(-c2cc(-c3cccnc3)no2)n1 [Compound 1, 2-Bromo-6-[3-(pyridin-3-yl)-1,2-oxazol-5-yl]pyridine] | 100% | chromatographic logP (log P by HPLC-MS; [5]): 2.23

Further lines, the molecule ahead of its results:

Row | SMILES | chromatographic logP (log P by HPLC-MS; [3]) | chromatographic logP (log P by HPLC-MS; [4]) | pest or weed control at 500 g/ha [1] | other results
14 | CC(C)c1nn(-c2cccnc2)c(=O)n1N [4-Amino-5-isopropyl-2-(pyridin-3-yl)-2,4-dihydro-3H-1,2,4-triazol-3-one] | 0.85 |  |  | 
15 | CC(C)c1nn(-c2cccnc2)c(=O)n1-c1cccc(-c2ncccn2)n1 [Compound 14, 5-Isopropyl-2-(pyridin-3-yl)-4-[6-(pyrimidin-2-yl)pyridin-2-yl]-2,4-dihydro-3H-1,2,4-triazol-3-one] | 1.77 | 1.77 |  | 
16 | Cc1nn(-c2cccnc2)c(=O)[nH]1 [5-Methyl-2-(pyridin-3-yl)-2,4-dihydro-3H-1,2,4-triazol-3-one] | -0.21 |  |  | 
17 | C#Cc1cccc(-c2ncccn2)n1 [2-(6-ethynylpyridin-2-yl)pyrimidine, 2-(6-Ethynylpyridin-2-yl)pyrimidine] | 1.05 |  |  | 
18 | Fc1cncc(-c2cc[nH]n2)c1 [3-(5-fluoro-3-pyridinyl)-1H-pyrazole, 3-(5-Fluoro-3-pyridinyl)-1H-pyrazole] | 0.92 |  |  | 
19 | CN(C)S(=O)(=O)NC(=O)c1cccc(-n2ccc(-c3cncc(F)c3)n2)n1 [Compound 22, 6-[3-(5-Fluoro-3-pyridinyl)-1H-pyrazol-1-yl]-N-[(dimethylamino)sulfonyl]-2-pyridinecarboxamide] |  |  |  | chromatographic logP (log P by HPLC-MS; HPLC-MS, log P, eluent not stated): 2.61; chromatographic logP (log P by HPLC-MS; HPLC-MS, logP, HCOOH, Table 2): 2.61
20 | Cn1nc(-c2cccc(Br)n2)cc1-c1cccnc1 [2-Bromo-6-[1-methyl-5-(pyridin-3-yl)-1H-pyrazol-3-yl]pyridine] |  |  |  | chromatographic logP (log P by HPLC-MS; HCOOH (formic acid)): 1.94
21 | CC1(C)OB(c2coc(-c3cccnc3)c2)OC1(C)C [3-[4-(4,4,5,5-Tetramethyl-1,3,2-dioxaborolan-2-yl)-2-furyl]pyridine] | 2.25 |  |  | 
22 | c1cnc(-c2cccc(-c3nccs3)n2)nc1 [2-[6-(1,3-Thiazol-2-yl)pyridin-2-yl]pyrimidine] | 1.43 |  |  | 
23 | CCc1nn(-c2cccnc2)c(=O)n1N [4-Amino-5-ethyl-2-(pyridin-3-yl)-2,4-dihydro-3H-1,2,4-triazol-3-one] | 0.32 |  |  | 
24 | C[Si](C)(C)C#Cc1cccc(-c2ncccn2)n1 [2-{6-[(Trimethylsilyl)ethynyl]pyridin-2-yl}pyrimidine] |  |  |  | chromatographic logP (log P by HPLC-MS): 3.11
25 | CC(C)c1nn(-c2cccnc2)c(=O)[nH]1 [5-Isopropyl-2-(pyridin-3-yl)-2,4-dihydro-3H-1,2,4-triazol-3-one] | 0.71 |  |  | 
26 | Fc1cncc(-c2cnc(-c3cccc(-c4ncccn4)n3)s2)c1 [Compound 21, 2-{6-[5-(5-Fluoropyridin-3-yl)-1,3-thiazol-2-yl]pyridin-2-yl}pyrimidine] | 2.13 |  | 90% | chromatographic logP (log P by HPLC-MS; HPLC-MS, logP, HCOOH, Table 2): 2.13
27 | COC(=O)c1cccc(-n2ccc(-c3cncc(F)c3)n2)n1 [Methyl 6-[3-(5-fluoro-3-pyridinyl)-1H-pyrazol-1-yl]-2-pyridinecarboxylate] | 1.07 |  |  | 
28 | CCc1nn(-c2cccnc2)c(=O)[nH]1 [5-Ethyl-2-(pyridin-3-yl)-2,4-dihydro-3H-1,2,4-triazol-3-one] | 0.3 |  |  | 
29 | CN(C)C=CC(=O)c1cncc(F)c1 (mixture of isomers) [(E/Z)-3-(Dimethylamino)-1-(5-fluoro-3-pyridinyl)-2-propen-1-one] | 0.91 |  |  | 
